Reference: ChEMBL document CHEMBL1201862, “PubChem BioAssay data set” (2004)
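48-hour exposure; five concentrations; linearly interpolated endpoints. GI50 marks 50% less growth.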 Active and inactive are the calls of the source. No stated cut-off is given here; in the data, active = GI50 up to about 1.1 µM and inactive = higher.

What was measured:
Test in all cases: NCI tumour cell line growth inhibition, 48 h
[1] = tested on: RXF 393
[2] = tested on: HOP-62
[3] = tested on: SK-MEL-2
[4] = tested on: OVCAR-8
[5] = tested on: SF-268
[6] = tested on: ACHN
[7] = tested on: TK-10
[8] = tested on: NCI-H226
[9] = tested on: CAKI-1
[10] = tested on: SR
[11] = tested on: U-251
[12] = tested on: A549
[13] = tested on: NCI-H522
[14] = tested on: KM12
[15] = tested on: SN12C
[16] = tested on: SF-539
[17] = tested on: OVCAR-5
[18] = tested on: SNB-19
[19] = tested on: UO-31
[20] = tested on: SNB-78
[21] = tested on: M14
[22] = tested on: HCC 2998
[23] = tested on: UACC-257
[24] = tested on: SNB-75
[25] = tested on: DMS-273
[26] = tested on: DLD-1
[27] = tested on: LXFL 529
[28] = tested on: SW-620
[29] = tested on: NCI-H460
[30] = tested on: HT-29
[31] = tested on: NCI-H23
[32] = tested on: SK-MEL-28
[33] = tested on: DMS-114
[34] = tested on: SF-295
[35] = tested on: Malme-3M
[36] = tested on: KM-20L2
[37] = tested on: LOX IMVI
[38] = tested on: HOP-18
[39] = tested on: XF498
[40] = tested on: M19-MEL
[41] = tested on: EKVX
[42] = tested on: CCRF-CEM
[43] = tested on: OVCAR-4
[44] = tested on: HCT-15
[45] = tested on: A498
[46] = tested on: 786-0
[47] = tested on: OVCAR-3
[48] = tested on: HOP-92
[49] = tested on: MOLT-4
[50] = tested on: K562
[51] = tested on: COLO 205
[52] = tested on: SK-OV-3
[53] = tested on: IGROV-1
[54] = tested on: UACC-62
[55] = tested on: HCT-116
[56] = tested on: SK-MEL-5
[57] = tested on: HL-60
[58] = tested on: RXF 631
[59] = tested on: RPMI-8226

CCCCN1C(=O)NC(Cc2ccccc2)C1=O (configuration not stated)
GI50 [1]: > 100 µM (inactive) | GI50 [2]: > 100 µM (inactive) | GI50 [3]: > 100 µM (inactive) | GI50 [4]: > 100 µM (inactive) | GI50 [5]: > 100 µM (inactive) | GI50 [6]: > 100 µM (inactive) | GI50 [7]: > 100 µM (inactive) | GI50 [8]: > 100 µM (inactive) | GI50 [9]: > 100 µM (inactive) | GI50 [10]: > 100 µM (inactive) | GI50 [11]: > 100 µM (inactive) | GI50 [12]: > 100 µM (inactive) | GI50 [13]: > 100 µM (inactive) | GI50 [14]: > 100 µM (inactive) | GI50 [15]: > 100 µM (inactive) | GI50 [16]: > 100 µM (inactive) | GI50 [17]: > 100 µM (inactive) | GI50 [18]: > 100 µM (inactive) | GI50 [19]: > 100 µM (inactive) | GI50 [20]: > 100 µM (inactive) | GI50 [21]: > 100 µM (inactive) | GI50 [22]: > 100 µM (inactive) | GI50 [23]: > 100 µM (inactive) | GI50 [24]: > 100 µM (inactive) | GI50 [25]: > 100 µM (inactive) | GI50 [26]: > 100 µM (inactive) | GI50 [27]: > 100 µM (inactive) | GI50 [28]: > 100 µM (inactive) | GI50 [29]: > 100 µM (inactive) | GI50 [30]: > 100 µM (inactive) | GI50 [31]: > 100 µM (inactive) | GI50 [32]: > 100 µM (inactive) | GI50 [33]: > 100 µM (inactive) | GI50 [34]: > 100 µM (inactive) | GI50 [35]: > 100 µM (inactive) | GI50 [36]: > 100 µM (inactive) | GI50 [37]: > 100 µM (inactive) | GI50 [38]: > 100 µM (inactive) | GI50 [39]: > 100 µM (inactive) | GI50 [40]: > 100 µM (inactive) | GI50 [41]: > 100 µM (inactive)

COc1cc(C2c3cc4c(cc3[C@@H](Nc3ccc(N(C)C)cc3)[C@H]3COC(=O)C23)OCO4)cc(OC)c1O (some centres not stated)
GI50 [1]: 0.951 µM (active) | GI50 [2]: 0.103 µM (active) | GI50 [42]: 0.153 µM (active) | GI50 [3]: 2.37 µM (inactive) | GI50 [4]: 0.587 µM (active) | GI50 [5]: 0.351 µM (active) | GI50 [43]: 9.35 µM (inactive) | GI50 [6]: 0.049 µM (active) | GI50 [7]: 2.64 µM (inactive) | GI50 [8]: 0.0545 µM (active) | GI50 [9]: 0.141 µM (active) | GI50 [10]: 0.0127 µM (active) | GI50 [11]: 0.149 µM (active) | GI50 [44]: 0.838 µM | GI50 [45]: 0.551 µM (active) | GI50 [12]: 0.0871 µM (active) | GI50 [46]: 0.228 µM (active) | GI50 [13]: 0.873 µM (active) | GI50 [14]: 1.24 µM (inactive) | GI50 [15]: 0.34 µM (active) | GI50 [16]: 0.316 µM (active) | GI50 [17]: 0.818 µM (active) | GI50 [18]: 0.273 µM (active) | GI50 [19]: 0.607 µM (active) | GI50 [20]: 4.31 µM (inactive) | GI50 [21]: 0.327 µM (active) | GI50 [47]: 8.04 µM (inactive) | GI50 [48]: 0.36 µM (active) | GI50 [22]: 1.27 µM (inactive) | GI50 [49]: 0.108 µM (active) | GI50 [23]: 2.23 µM (inactive) | GI50 [50]: 0.537 µM (active) | GI50 [24]: 0.324 µM (active) | GI50 [25]: 0.116 µM (active) | GI50 [26]: 1.73 µM (inactive) | GI50 [27]: 2.15 µM (inactive) | GI50 [28]: 0.807 µM (active) | GI50 [51]: 1.85 µM (inactive) | GI50 [29]: 0.0214 µM (active) | GI50 [30]: 1.13 µM (inactive) | GI50 [31]: 0.189 µM (active) | GI50 [32]: 3.79 µM (inactive) | GI50 [52]: 0.212 µM (active) | GI50 [53]: 3.56 µM (inactive) | GI50 [33]: 0.42 µM (active) | GI50 [34]: 0.122 µM (active) | GI50 [35]: 1.41 µM (inactive) | GI50 [36]: 0.708 µM (active) | GI50 [54]: 0.232 µM (active) | GI50 [37]: 0.817 µM (active) | GI50 [38]: 1.85 µM (inactive) | GI50 [39]: 0.687 µM (active) | GI50 [40]: 0.839 µM (active) | GI50 [55]: 0.582 µM (active) | GI50 [56]: 0.873 µM (active) | GI50 [41]: 0.456 µM (active) | GI50 [57]: 0.193 µM (active)

CC1(C)CCCC2(C)[C@@H]1CC[C@@]13CC(=O)[C@@](C)(CC[C@@H]21)C3 (some centres not stated)
GI50 [1]: 18.3 µM (inactive) | GI50 [2]: 82.2 µM (inactive) | GI50 [42]: > 100 µM (inactive) | GI50 [4]: 85.7 µM (inactive) | GI50 [5]: 95.7 µM (inactive) | GI50 [43]: 87.9 µM (inactive) | GI50 [6]: 87.3 µM (inactive) | GI50 [7]: > 100 µM (inactive) | GI50 [8]: 83.4 µM (inactive) | GI50 [9]: > 100 µM (inactive) | GI50 [10]: 42.5 µM (inactive) | GI50 [11]: 49 µM (inactive) | GI50 [44]: 97.5 µM | GI50 [12]: 85.1 µM (inactive) | GI50 [46]: > 100 µM (inactive) | GI50 [13]: 20.9 µM (inactive) | GI50 [14]: 80.5 µM (inactive) | GI50 [15]: 93.5 µM (inactive) | GI50 [16]: > 100 µM (inactive) | GI50 [17]: > 100 µM (inactive) | GI50 [18]: > 100 µM (inactive) | GI50 [19]: > 100 µM (inactive) | GI50 [20]: > 100 µM (inactive) | GI50 [21]: 94.6 µM (inactive) | GI50 [47]: > 100 µM (inactive) | GI50 [48]: > 100 µM (inactive) | GI50 [22]: > 100 µM (inactive) | GI50 [58]: 78.3 µM (inactive) | GI50 [49]: 57.4 µM (inactive) | GI50 [23]: 32.7 µM (inactive) | GI50 [50]: > 100 µM (inactive) | GI50 [24]: > 100 µM (inactive) | GI50 [25]: 55.6 µM (inactive) | GI50 [26]: > 100 µM (inactive) | GI50 [27]: 80.2 µM (inactive) | GI50 [59]: 57 µM (inactive) | GI50 [28]: > 100 µM (inactive) | GI50 [51]: > 100 µM (inactive) | GI50 [29]: 42.1 µM (inactive) | GI50 [30]: 30 µM (inactive) | GI50 [31]: 59.7 µM (inactive) | GI50 [32]: > 100 µM (inactive) | GI50 [52]: > 100 µM (inactive) | GI50 [53]: > 100 µM (inactive) | GI50 [33]: 46 µM (inactive) | GI50 [34]: > 100 µM (inactive) | GI50 [35]: > 100 µM (inactive) | GI50 [36]: 72.3 µM (inactive) | GI50 [54]: > 100 µM (inactive) | GI50 [37]: 39.4 µM (inactive) | GI50 [40]: 31.5 µM (inactive) | GI50 [55]: 46.1 µM (inactive) | GI50 [56]: 52.5 µM (inactive) | GI50 [57]: 52.4 µM (inactive)
